Where a name gives a salt, the structure may show the parent alone.
Key:
Settings in all cases: compounds 10 μM; miltefosine 10 μM or 1 μM
hERG = molecular target: T1, hERG (Homo sapiens, UniProt Q12809); test: hERG cardiotoxicity assay (Predictor hERG fluorescence polarization); assay type: binding
T1 construct: purchased Thermo Fischer Scientific
Experimental: hERG cardiotoxicity assay: The Predictor® hERG fluorescence polarization assay (Thermo Fischer Scientific, Waltham, MA, USA) was used to test compounds for potential cardiotoxicity. To each well of the assay plate, 100 nL of the test/control compound was added followed by addition of 5 μL homogenized membrane solution (undiluted) and 5 μL of tracer (1 nM final concentration in the assay). The plates were incubated for 2 h at 25 °C in a humidity controlled incubator, and the fluorescence polarization was measured using an EnVision Multilabel 2103 Reader (PerkinElmer, Waltham, MA. USA). The NCs (0% inhibition) and positive controls with E-4031, a blocker of hERG-type potassium channels (yielding 100% inhibition), were used to normalize the raw data.
(§1) Data analysis: The screening data were obtained in triplicate and analysed using ActivityBase (IDBS, Guildford, UK), and outlier elimination in the control wells was performed using the 3-sigma method. Unless stated, dose–response experiments were performed in the 11-point format with the IC50 value, Hill slope, minimum signal and maximum signal for each dose–response curve obtained using a four-parameter logistic fit in the XE module of ActivityBase (IDBS).

CYP2C9 = molecular target: T2, CYP2C9 (Homo sapiens, UniProt P11712); test: Cytochrome P450 inhibition assay (P450-Glo) CYP2C9; assay type: in vitro ADME
T2 construct: purchased Corning Inc; host or cells: baculovirus-infected insect cells
Description: (§2) Cytochrome (CYP) P450 inhibition assay: These assays made use of microsomal preparations of CYP450 (1A2, 2C9, 2C19, 2D6 and 3A4) from baculovirus-infected insect cells (Corning Inc., Corning, NY, USA) and cytochrome c reductase (and cytochrome b5 for CYP450 3A4). For detection of CYP450 activity, the luminescence-based P450-Glo (Promega Corp., Madison, WI, USA) assay system was used that contained a luminogenic CYP450 substrate, lyophilized luciferin detection reagent and reconstitution buffer. The substrates were luciferin derivatives of CYP450-specific substrates that produce (4S)-4,5-dihydro-2-(6-hydroxybenzothiazolyl)-4-thiazolecarboxylic acid (D-luciferin) after cleavage by CYP450 (CYP450 3A4, luciferin-IPA; CYP450 2C19, luciferin-H EGE; CYP450 2C9, luciferin-H; CYP450 2D6, luciferin-ME EGE; CYP450 1A2, luciferin-1A2). CYP450 reactions were initiated by addition of the NADPH regeneration system to the enzyme–substrate mixture with the luciferin detection reagent stopping the reaction and the D-luciferin being converted to oxyluciferin under the production of light being proportional to the CYP450 activity. The CYP450 assays were performed using the Tecan Fluent liquid-handling automation platform (Tecan Group Ltd., Mannedorf, Switzerland) in the 384-well assay format. Compounds were added into an empty 384-well plate (100 nL/well in 1% v/v DMSO) using the Echo 550 Liquid Handler followed by the addition of 5 μL/well of the CYP450/substrate mixture and incubation for 30 min at 37 °C, after which the reaction was initiated by the addition of the 5 μL/well NADPH regeneration system. After a further 30-min incubation at 37 °C, the CYP450 reaction was stopped and the luciferase reaction was simultaneously initiated by addition of 10 μL/well of luciferin detection reagent, followed by an additional 30-min incubation at 37 °C. The luminescence signal was detected using an Infinite M1000 PRO plate reader (Tecan Group Ltd., Mannedorf, Switzerland). The NCs yielded 0% inhibition (1% v/v DMSO) and standard CYP450 specific inhibitors were used as positive controls, yielding 100% inhibition (CYP450 1A2, alpha-naphthoflavone; CYP450 2C9, sulfaphenazole; CYP450 2C19, troglitazone; CYP450 2D6, quinidine; CYP450 3A4, ketoconazole).
as §1

CYP2D6 = molecular target: T3, CYP2D6 (Homo sapiens, UniProt P10635); test: Cytochrome P450 inhibition assay (P450-Glo) CYP2D6; assay type: in vitro ADME
T3 construct: purchased Corning Inc; host or cells: baculovirus-infected insect cells
Description: as §2, §1

CYP3A4 = molecular target: T4, CYP3A4 (Homo sapiens, UniProt P08684); test: Cytochrome P450 inhibition assay (P450-Glo) CYP3A4; assay type: in vitro ADME
T4 construct: purchased Corning Inc; host or cells: baculovirus-infected insect cells
Description: as §2, §1

WI-38 cells = test: Cytotoxicity assay WI-38 (CellTiter-Glo); assay type: cell-based
Description: Early ADMET profiling: The early ADMET profiling of the new derivatives involved a group of assays widely used in drug development as part of the preclinical in vitro toxicity studies. In particular our panel included hERG inhibition, five cytochromes P450 (CYP1A2, CYP2C9, CYP2C19, CYP2D6 and CYP3A4), two cell-lines (A549, epithelial human lung adenocarcinoma, WI38 and foetal lung fibroblasts), Aurora B kinase and mitochondrial toxicity, in addition to the parasite relevant toxicity against THP1 macrophages. The compounds were tested at 10 μΜ, whilst the miltefosine control was tested at 10 μΜ or 1 μM. The toxicity of the new click phospholipids is depicted in Figure 3 in a traffic light format (from red through yellow to green for decreasing ADMET liabilities).
Cytotoxicity assay: A549 cells and WI-38 cells were grown on surface-modified T175 cell culture flasks in Dulbecco’s modified Eagle medium with 10% foetal calf serum (FCS), streptomycin (100 μg/mL) and 100 U/mL penicillin G. At about 80% confluency, cells were washed, trypsinized, resuspended and counted in RPMI-1640 medium before seeding (in triplicate) into white 384-well microtiter plates (20 μL) at 500 cells/well and incubated at 37 °C in the presence of 5% CO2 for 24 h. A total of 20 μL/well of CellTiter-Glo (CTG) reagent (Promega Corp., Madison, WI, USA) was added to each well, and plates were read using an EnVision Multilabel 2103 Reader after a 10-min incubation in the dark. Dose–response assays for compounds made use of 11-point curves. Each test compound (200 nL of 10 mM top concentration in 100% v/v DMSO) was added to cells seeded in polystyrene 384-well cell culture microtiter plates using the Echo 550 Liquid Handler and read after 24 h of incubation at 37 °C in the presence of 5% CO2 using CTG as described above. The compounds/positive control (paclitaxel with final concentration of 10 μM and 1% v/v DMSO) and no compound (final 1% v/v DMSO) were added into the 384-well plates (200 nL/well; 1% v/v DMSO) using the Echo 550 Liquid Handler. The raw luminescence signal of each sample was converted into the percentage of cell growth.

T1 sequence (Q12809 whole entry): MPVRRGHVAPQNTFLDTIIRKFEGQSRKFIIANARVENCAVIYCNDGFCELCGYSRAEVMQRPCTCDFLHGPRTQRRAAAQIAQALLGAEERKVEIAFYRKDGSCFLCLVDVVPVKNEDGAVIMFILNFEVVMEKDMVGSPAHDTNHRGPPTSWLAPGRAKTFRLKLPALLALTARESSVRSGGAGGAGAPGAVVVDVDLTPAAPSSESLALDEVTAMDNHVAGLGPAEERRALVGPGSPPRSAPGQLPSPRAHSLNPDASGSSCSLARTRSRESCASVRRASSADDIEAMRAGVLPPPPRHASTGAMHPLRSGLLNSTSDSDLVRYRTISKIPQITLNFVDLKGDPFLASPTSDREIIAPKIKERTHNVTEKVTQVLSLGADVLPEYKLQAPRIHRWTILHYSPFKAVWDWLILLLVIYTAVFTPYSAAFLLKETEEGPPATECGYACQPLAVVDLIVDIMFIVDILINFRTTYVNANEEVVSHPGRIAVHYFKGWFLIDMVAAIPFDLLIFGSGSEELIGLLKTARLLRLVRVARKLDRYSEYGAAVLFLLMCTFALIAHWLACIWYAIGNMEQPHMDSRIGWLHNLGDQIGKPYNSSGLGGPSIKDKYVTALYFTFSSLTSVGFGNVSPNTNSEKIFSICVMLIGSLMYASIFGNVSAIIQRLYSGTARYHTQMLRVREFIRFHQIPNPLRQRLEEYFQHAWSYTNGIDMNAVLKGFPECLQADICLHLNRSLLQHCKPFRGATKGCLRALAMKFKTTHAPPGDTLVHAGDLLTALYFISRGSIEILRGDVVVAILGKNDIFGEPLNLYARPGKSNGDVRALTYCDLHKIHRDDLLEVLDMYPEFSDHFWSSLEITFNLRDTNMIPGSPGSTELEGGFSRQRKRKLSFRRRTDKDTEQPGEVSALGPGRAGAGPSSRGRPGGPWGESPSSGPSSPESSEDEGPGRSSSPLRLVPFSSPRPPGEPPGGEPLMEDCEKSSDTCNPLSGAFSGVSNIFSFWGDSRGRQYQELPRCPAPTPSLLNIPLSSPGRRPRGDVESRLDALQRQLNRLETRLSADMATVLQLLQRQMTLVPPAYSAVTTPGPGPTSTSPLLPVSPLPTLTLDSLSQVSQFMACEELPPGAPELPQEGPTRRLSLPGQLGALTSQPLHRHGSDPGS
T3 sequence (P10635 whole entry): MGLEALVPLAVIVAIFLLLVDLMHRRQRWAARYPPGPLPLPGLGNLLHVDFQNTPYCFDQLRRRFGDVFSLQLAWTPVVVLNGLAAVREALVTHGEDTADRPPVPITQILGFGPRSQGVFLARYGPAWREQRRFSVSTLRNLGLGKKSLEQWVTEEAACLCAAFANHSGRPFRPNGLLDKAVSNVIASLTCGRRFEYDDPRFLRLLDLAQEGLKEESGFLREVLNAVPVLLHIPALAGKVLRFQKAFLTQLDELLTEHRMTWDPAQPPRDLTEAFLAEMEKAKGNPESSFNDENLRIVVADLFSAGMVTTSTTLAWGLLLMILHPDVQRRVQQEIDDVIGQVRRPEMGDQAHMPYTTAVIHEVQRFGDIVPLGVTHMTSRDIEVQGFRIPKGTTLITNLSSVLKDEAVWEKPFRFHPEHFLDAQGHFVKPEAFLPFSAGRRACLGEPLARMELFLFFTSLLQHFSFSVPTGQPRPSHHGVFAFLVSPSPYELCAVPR
T2 sequence (P11712 whole entry): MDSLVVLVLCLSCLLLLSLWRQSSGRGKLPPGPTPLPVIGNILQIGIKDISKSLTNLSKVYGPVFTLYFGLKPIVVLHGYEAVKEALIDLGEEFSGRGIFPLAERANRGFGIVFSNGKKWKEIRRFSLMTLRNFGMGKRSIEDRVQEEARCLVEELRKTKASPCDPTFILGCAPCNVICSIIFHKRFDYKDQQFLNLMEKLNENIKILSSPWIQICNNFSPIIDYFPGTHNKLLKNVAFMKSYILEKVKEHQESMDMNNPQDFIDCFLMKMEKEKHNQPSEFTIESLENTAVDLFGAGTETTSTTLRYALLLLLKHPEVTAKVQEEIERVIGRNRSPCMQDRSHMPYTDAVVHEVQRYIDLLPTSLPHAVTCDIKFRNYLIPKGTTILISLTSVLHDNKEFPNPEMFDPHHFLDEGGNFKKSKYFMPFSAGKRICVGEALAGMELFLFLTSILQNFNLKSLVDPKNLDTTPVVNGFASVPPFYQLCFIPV
T4 sequence (P08684 2-503 limits assumed): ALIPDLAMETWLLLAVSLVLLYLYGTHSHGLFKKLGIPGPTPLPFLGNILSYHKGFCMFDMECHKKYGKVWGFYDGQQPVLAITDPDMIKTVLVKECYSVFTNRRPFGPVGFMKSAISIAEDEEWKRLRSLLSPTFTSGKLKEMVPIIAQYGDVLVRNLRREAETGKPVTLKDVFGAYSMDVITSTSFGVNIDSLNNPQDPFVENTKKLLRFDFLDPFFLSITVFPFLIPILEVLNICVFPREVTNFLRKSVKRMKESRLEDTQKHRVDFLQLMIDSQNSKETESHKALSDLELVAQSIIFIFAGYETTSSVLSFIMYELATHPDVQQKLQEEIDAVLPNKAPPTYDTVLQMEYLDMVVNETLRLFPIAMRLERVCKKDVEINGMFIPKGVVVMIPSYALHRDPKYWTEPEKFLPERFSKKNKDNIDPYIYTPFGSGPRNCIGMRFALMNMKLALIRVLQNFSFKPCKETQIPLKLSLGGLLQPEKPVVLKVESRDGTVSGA

Row | Structure (SMILES) | % inhibition ± SD at 10 μΜ hERG (hERG) | % inhibition ± SD at 10 μΜ CYP2C9 (CYP2C9) | % inhibition ± SD at 10 μΜ CYP2D6 (CYP2D6) | % inhibition ± SD at 10 μΜ CYP3A4 (CYP3A4) | % cell growth ± SD at 10 μΜ W1-38 (WI-38 cells) [%]
1 | CCCCCc1cn(CCCCCCCCCCCOP(=O)([O-])OCC[N+](C)(C)C)nn1 [Compound 25, 11-(4-pentyl-1H-1,2,3-triazol-1-yl)undecyl (2-(trimethylammonio)ethyl) phosphate inner salt] | –7.70% | –23.11% | –37.71% | –20.13% | 93.46
2 | C[N+](C)(C)CCOP(=O)([O-])OCCCCCCCCCCCn1cc(CC2CCCC2)nn1 [Compound 28, 11-(4-(cyclopentylmethyl)-1H-1,2,3-triazol-1-yl)undecyl (2-(trimethylammo nio)ethyl) phosphate inner salt] | –3.64% | –23.46% | –56.57% | –33.70% | 114.04
3 | C[N+](C)(C)CCOP(=O)([O-])OCCCCCCCCCCCn1cc(CC2CCCCC2)nn1 [Compound 29, 11-(4-(cyclohexylmethyl)-1H-1,2,3-triazol-1-yl)undecyl (2-(trimethylammonio)ethyl) phosphate inner salt] | –4.90% | –22.63% | –46.97% | –33.59% | 92.93
4 | C[N+](C)(C)CCOP(=O)([O-])OCCCCCn1cc(CCCCCCCCNC(=O)OCc2ccccc2)nn1 [Compound 31, 5-(4-(8-(((benzyloxy)carbonyl)amino)octyl)-1H-1,2,3-triazol-1-yl)pentyl (2-(trimethylammonio)ethyl) phosphate inner salt] | –6.43% | 8.95% | 11.06% | –7.33% | 123.63
5 | C[N+](C)(C)CCCOP(=O)([O-])OCCCCCCCCCCCn1cc(CC2CCCCC2)nn1 [Compound 33, 11-(4-(cyclohexylmethyl)-1H-1,2,3-triazol-1-yl)undecyl (3-(trimethylammonio)propyl) phosphate inner salt] | 16.60 ± 2.64% | 19.72% | 9.87±6.48% | 7.61 ± 9.09% | 136.32
6 | C[N+](C)(C)CCOP(=O)([O-])OCCCCCCCCCCCn1cc(CCCCCCCCC(=O)O)nn1 [Compound 34, 11-(4-(8-carboxyoctyl)-1H-1,2,3-triazol-1-yl)undecyl (2-(trimethylammonio)ethyl) phosphate inner salt] |  | 18.94% | 23.08% | 19.27% | 
7 | C[N+](C)(C)CCOP(=O)([O-])OCCCCCn1cc(CCCCCCCCN)nn1 [Compound 35, 5-(4-(8-aminooctyl)-1H-1,2,3-triazol-1-yl)pentyl (2-(trimethylammonio)ethyl) phosphate inner salt] | 0.10% | 2.57% | 7.26% | –8.64% | 119.10
8 | CCCCCCCCc1noc(CCCCCOP(=O)([O-])OCC[N+](C)(C)C)n1 [Compound 53, 5-(3-octyl-1,2,4-oxadiazol-5-yl)pentyl (2-(trimethylammonio)ethyl) phosphate inner salt] | 8.95% | 5.45% | –26.41% | –12.40% | 83.83
9 | CCCCCCCCc1noc(CCCCCCCCCCOP(=O)([O-])OCC[N+](C)(C)C)n1 [Compound 54, 10-(3-octyl-1,2,4-oxadiazol-5-yl)decyl (2-(trimethylammonio)ethyl) phosphate inner salt] | 17.93% |  | 6.07% | 13.88% | 
10 | CCCCCCCc1nnc(CCCCCCCCCCOP(=O)([O-])OCC[N+](C)(C)C)o1 [Compound 65, 10-(5-heptyl-1,3,4-oxadiazol-2-yl)decyl (2-(trimethylammonio)ethyl) phosphate inner salt] | 8.64% | 28.32% | –30.44% | –2.44% | 77.74
11 | CCCCCCCCCCCc1nnc(CCCCCCCCCCOP(=O)([O-])OCC[N+](C)(C)C)o1 [Compound 66, 2-(trimethylammonio)ethyl (10-(5-undecyl-1,3,4-oxadiazol-2-yl)decyl) phosphate inner salt] | 22.98% |  |  |  | 
12 | CCCCCCCCCCCCCCCCOP(=O)([O-])OCC[N+](C)(C)C [Miltefosine, hexadecylphosphocholine, reference compound] | –16.92% | –0.80% | 30.83% | 8.39% | 113.50

From article PMC8305768, “Design, Synthesis and Antiparasitic Evaluation of Click Phospholipids” (Molecules, 2021)
